Data published in patent US20110104301A1, “METHODS OF REDUCING PAIN AND INFLAMMATION” (Georgetown University, A Congressionally Chartered …, priority 2008, published 2011).
Entries after “also recorded” stand apart in the source; their conditions may differ.

Key:
TRPV1 [1] = biological target: T1, TRPV1 (Mus musculus, UniProt Q704Y3); assay: Patch-clamp of capsaicin-sensitive sensory neurons (nodose ganglia); format: cell-based
T1 construct: endogenous in cells; host or cells: primary nodose ganglion neurons of adult C57Bl6/J mice
Experimental: (§1) HEK cell and sensory neuron electrophysiology. HEK 293F cells (Invitrogen) were cultured in DMEM supplemented with 1% non-essential amino acids and 10% fetal calf serum. Cell cultures were maintained at 37° C. with 5% CO2. Cells were transfected with rat TRPV 1 (gift of David Julius), and GFP cDNA using Lipofectamine™ Transfection Reagent (Invitrogen) and used 24-48 h after transfection. Nodose ganglia were obtained from adult mice (C57B16/J and TRPV1-null), cut, digested with collagenase, and cultured in Neurobasal +2% B-27 medium (Invitrogen), 0.1% L-glutamine and 1% penicillin/streptomycin on poly-D lysine-coated glass coverslips at 37° C. in 5% CO2. Neurons were used within 24-36 hr of culture. Whole-cell and single-channel patch clamp recordings were performed using an EPC8 amplifier (HEKA). The current signal was low-pass filtered at 1-3 kHz and sampled at 4 kHz. Currents were further filtered for display purposes. For whole-cell and excised patch recordings the bath solution contained (in mM): 140 NaCl, 4 KCl, 1 MgCl2, 1 EGTA, 10 HEPES, 10 glucose pH 7.3 (290 mOsm). The pipette solution contained (in mM): 140 CsC1, 10 NaCl, 10 HEPES, 5 EGTA, 2 Mg ATP and 0.03 GTP, pH 7.3. The peak amplitudes measured either during the prepulse or the tail current (within 1 ms) were plotted as a function of the test potential and normalized to the maximal current obtained from the following Boltzmann function: […]

[2] = test system: AITC-sensitive DRG neurons; assay: Voltage- and current-clamp of DRG sensory neurons; format: cell-based, mouse; settings: camphor 0.5 mM, propofol 100 μM
Experimental: (§2) Electrophysiology. HEK 293F cells were transfected with rat TRPV1, TRPA1, and TRPM8 (gift of David Julius, University of California, San Francisco). Dorsal root ganglia were cultured from adult mice (C57B16/J wild type and TRPV1-null, and mixed B6/129 background TRPA1-null) in Neurobasal +2% B-27 medium (Invitrogen), 0.1% L-glutamine and 1% penicillin/streptomycin. Whole-cell and single-channel patch-clamp recordings were performed by using an EPC8 amplifier (HEKA Electronics). For whole-cell and excised patch recordings the bath solution contained 140 mMNaCl, 4 mMKCl, 1 mMMgCl2, 1.2 mMCaCl2, 10 mMHepes, 10 mM glucose, pH 7.3. For cell-attached experiments, NaCl was replaced with KCl in the bath solution. The pipette solution contained 140 mM NaCl or KCl, 10 mM Hepes, 5 mM EGTA, pH 7.3. For neuronal recording NaCl was replaced with K-gluconate (plus 1 mMATP, 0.2 mM GTP). Solutions were applied via a gravity-fed system. Separate outlets were used to apply capsaicin and AITC solutions to avoid contamination. Voltage-dependent properties were measured as described in Matt and Ahern, J. Physiol. 585:469-482 (2007). Current-voltage measurements comprised a 200-ms ramp from −150 mV to +200 mV. The baseline currents under control conditions were subtracted. For cell-attached experiments, peak amplitudes were measured from all-points histograms, and open probability was measured as NPo>750 ms. Defolliculated Xenopus laevis oocytes were injected with ≈10 ng of hTRPA1 (gift of Ardem Patapoutian, The Scripps Research Institute, La Jolla, Calif.). Oocytes were placed in a Perspex chamber and continuously superfused (5 ml min^−1) with Ca^2+-free solution containing 100 mM NaCl, 2.5 mM KCl, 5 mM Hepes, 1 mM MgC12 and titrated to pH 7.3 with ˜5 mM NaOH.

[3] = test system: DRG neurons from TRPA1-null mice; assay: Ca2+ imaging in DRG neurons from TRPA1-null mice; format: cell-based, mouse; settings: capsaicin 100 nM
Experimental: Ca^2+ Imaging. Neurons were loaded with 1 μM Fluo4-AM (Molecular Probes) for 20 min and washed for a further 10-20 min before recording. The dye was excited at 488±15 nm. Emitted fluorescence was filtered with a 535±25 nm bandpass filter, captured by a SPOT RT digital camera (Diagnostic Instruments) and read into a computer. Analysis was performed offline by using Simple PCI software (Compix Inc.).

mice [4] = assay: Nocifensive behavior after topical application to the nasal epithelium; format: in vivo, mouse; settings: capsaicin 10 mM
Experimental: (§3) Behavioral Experiments and Neurogenic Inflammation. Animal experiments were performed according to National Institutes of Health and institutional guidelines. […] Nocifensive behavior (nose wiping in sawdust bedding) was recorded for 2 min with a video camera and the duration was subsequently measured by a blinded observer. […] Electromyographic (EMG) activity was recorded via platinum electrodes from the semitendinosus muscle in mice anesthetized with urethane (1.3 g/kg) as described in Ando and Watanabe, Br J. Anaesth. […] The EMG signal was recorded by using a low-pass cutoff frequency of 200 Hz and integrated offline by using a 100-ms time window. […] Ear thickness was recorded by using an engineer's micrometer (Mitutoyo Corp.) before mustard-oil application and thereafter every 15 min for 60 min of anesthesia and 60 min of recovery.

mice [5] = assay: Flexor reflex response (EMG of semitendinosus muscle) after femoral artery injection; format: in vivo, mouse; settings: propofol 500 μM, capsaicin 50 μM
Experimental: as §3

TRPV1 [6] = biological target: T2, TRPV1 (Rattus norvegicus, UniProt O35433); assay: Whole-cell patch-clamp of TRPV1-expressing HEK293 cells; format: cell-based; set-up: expressed in transfected cells; host or cells: HEK 293F (Invitrogen), co-transfected with GFP cDNA; settings: for Shifts in TRPV1 V1/2 and increases in maximal conductance by alcohols: decanol 0.6 mM, dodecanol 0.1 mM
Experimental: (§4) Electrophysiology. […] Whole-cell and single-channel patch-clamp recordings were performed by using an EPC8 amplifier (HEKA Electronics). For whole-cell and excised patch recordings the bath solution contained 140 mMNaCl, 4 mMKCl, 1 mMMgCl2, 1.2 mMCaCl2, 10 mMHepes, 10 mM glucose, pH 7.3. For cell-attached experiments, NaCl was replaced with KCl in the bath solution. […] For neuronal recording NaCl was replaced with K-gluconate (plus 1 mMATP, 0.2 mM GTP). Solutions were applied via a gravity-fed system. […] Voltage-dependent properties were measured as described in Matt and Ahern, J. Physiol. […] The baseline currents under control conditions were subtracted. For cell-attached experiments, peak amplitudes were measured from all-points histograms, and open probability was measured as NPo>750 ms. Defolliculated Xenopus laevis oocytes were injected with ≈10 ng of hTRPA1 (gift of Ardem Patapoutian, The Scripps Research Institute, La Jolla, Calif.).
as §1, with “HEK 293F cells (Invitrogen) were cultured in DMEM supplemented with 1% non-essential amino acids and 10% fetal calf serum.” left out

TRPV1 [7] = biological target: T2, TRPV1; assay: Voltage-clamp of TRPV1-expressing Xenopus oocytes (capsaicin, protons, heat); format: cell-based; settings: VGAs 0.6 mM, pH 5.5
Experimental: Oocyte electrophysiology. […] Oocytes were placed in a Perspex chamber and continuously superfused (5 ml min-1) with Ca2+-free solution containing (in mM): 100 NaCl, 2.5 KCl, 5 HEPES, 1 MgCl2 and titrated to pH 7.3 with ˜5 mM NaOH. For solutions <pH 6.0, HEPES was replaced with either 5 mM MES or 5 mM sodium citrate. Oocytes were routinely voltage-clamped at −60 mV at 22-23° C. For heat activation, bath temperature was raised from ˜22-50° C. over ˜100 s using an in-line solution heater (Warner Instruments). The temperature was continuously monitored with a probe placed within 2 mm of the oocyte. The temperature-activation threshold was defined as a 20% increase in current above baseline.
Volatile general anesthetics. Saturated stock solutions of volatile general anesthetics (VGAs) were prepared in gas-tight bottles by dissolving excess anesthetic agents in bath solutions and stirring vigorously overnight. From these stock solutions fresh dilutions were made up every 40-60 minutes. Concentrations of volatile anesthetics in the bath solutions were verified using a modified head-space gas chromatography method. The gas chromatograph (Carlo Erba, Milan, Italy) was equipped with a flame ionization detector (FID) and mass spectrometer. The carrier gas was hydrogen (60 kPa column head pressure) and the fused silica capillary column, coated with polysiloxane SE-30, was 25 m×0.25 mm. Injector temperature was 250° C., FID temperature was 300° C. and the oven was maintained at 90° C. Standards were prepared from a mixture of halothane, isoflurane, and sevoflurane dissolved in acetonitrile with enflurane as an internal standard.

[8] = rat at 37° C.; cited from earlier work
TRPM8 = biological target: T3, TRPM8 (Rattus norvegicus, UniProt Q8R455); assay: Whole-cell patch-clamp of TRPM8-expressing HEK293 cells; format: cell-based
T3 construct: expressed in transfected cells; host or cells: HEK 293F
Experimental: as §4

TRPA1 = biological target: T4, TRPA1 (Rattus norvegicus, UniProt Q6RI86); assay: Whole-cell patch-clamp of TRPA1-expressing HEK293 cells; format: cell-based; settings: for Activation of TRPA1 currents by VGAs: 0.9 mM, voltage-clamped HEK293 cells
T4 construct: expressed in transfected cells; host or cells: HEK 293F
Experimental: as §4
Volatile General Anesthetics and Chemicals. Saturated stock solutions of volatile GAs were prepared in gas-tight bottles by dissolving excess anesthetic agents in bath solutions overnight. From these stock solutions fresh dilutions were made up every 40-60 min. Concentrations of GAs in the bath solutions were verified by using a modified head-space gas chromatography method. […] Alcohols with <6 carbons were dissolved directly into extracellular solution, and alcohols containing 6 carbons or more were dissolved in DMSO and then diluted into extracellular solutions that were sonicated for 20 min. All other drugs were prepared as stock solutions in DMSO or ethanol and diluted into physiological solution before experiments.

hTRPA1 = biological target: T5, hTRPA1 (Homo sapiens, UniProt O75762); assay: AITC-evoked currents in TRPA1-expressing Xenopus oocytes; format: cell-based; settings: VGAs 0.5-0.65 mM, AITC 10 μM
T5 construct: expressed in transfected cells; host or cells: Xenopus laevis oocytes (injected)
Experimental: as §2

[9] = isoflurane 0.9 mM, octanol 1 mM

T1 sequence (Q704Y3 whole entry): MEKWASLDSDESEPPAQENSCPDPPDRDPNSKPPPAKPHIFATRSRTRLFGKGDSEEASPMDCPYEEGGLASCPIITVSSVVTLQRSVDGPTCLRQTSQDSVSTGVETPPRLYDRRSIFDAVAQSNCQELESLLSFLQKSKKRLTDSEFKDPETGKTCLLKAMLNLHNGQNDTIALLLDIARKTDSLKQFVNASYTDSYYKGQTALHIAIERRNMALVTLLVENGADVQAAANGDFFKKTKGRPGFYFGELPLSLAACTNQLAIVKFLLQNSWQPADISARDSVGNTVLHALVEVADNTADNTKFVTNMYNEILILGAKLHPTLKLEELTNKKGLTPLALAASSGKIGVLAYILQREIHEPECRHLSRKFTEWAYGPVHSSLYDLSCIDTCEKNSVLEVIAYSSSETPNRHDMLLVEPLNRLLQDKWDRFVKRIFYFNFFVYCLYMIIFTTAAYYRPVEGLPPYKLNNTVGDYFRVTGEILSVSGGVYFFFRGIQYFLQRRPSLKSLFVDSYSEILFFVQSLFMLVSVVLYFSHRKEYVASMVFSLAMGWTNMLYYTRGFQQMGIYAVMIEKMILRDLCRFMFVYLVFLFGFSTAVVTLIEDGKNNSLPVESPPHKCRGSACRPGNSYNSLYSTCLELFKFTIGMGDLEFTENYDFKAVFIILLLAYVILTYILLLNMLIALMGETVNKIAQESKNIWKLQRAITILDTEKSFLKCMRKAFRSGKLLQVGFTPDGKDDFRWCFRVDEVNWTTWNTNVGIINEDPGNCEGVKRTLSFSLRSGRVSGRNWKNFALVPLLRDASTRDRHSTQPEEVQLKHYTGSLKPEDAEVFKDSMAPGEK
T4 sequence (Q6RI86 whole entry): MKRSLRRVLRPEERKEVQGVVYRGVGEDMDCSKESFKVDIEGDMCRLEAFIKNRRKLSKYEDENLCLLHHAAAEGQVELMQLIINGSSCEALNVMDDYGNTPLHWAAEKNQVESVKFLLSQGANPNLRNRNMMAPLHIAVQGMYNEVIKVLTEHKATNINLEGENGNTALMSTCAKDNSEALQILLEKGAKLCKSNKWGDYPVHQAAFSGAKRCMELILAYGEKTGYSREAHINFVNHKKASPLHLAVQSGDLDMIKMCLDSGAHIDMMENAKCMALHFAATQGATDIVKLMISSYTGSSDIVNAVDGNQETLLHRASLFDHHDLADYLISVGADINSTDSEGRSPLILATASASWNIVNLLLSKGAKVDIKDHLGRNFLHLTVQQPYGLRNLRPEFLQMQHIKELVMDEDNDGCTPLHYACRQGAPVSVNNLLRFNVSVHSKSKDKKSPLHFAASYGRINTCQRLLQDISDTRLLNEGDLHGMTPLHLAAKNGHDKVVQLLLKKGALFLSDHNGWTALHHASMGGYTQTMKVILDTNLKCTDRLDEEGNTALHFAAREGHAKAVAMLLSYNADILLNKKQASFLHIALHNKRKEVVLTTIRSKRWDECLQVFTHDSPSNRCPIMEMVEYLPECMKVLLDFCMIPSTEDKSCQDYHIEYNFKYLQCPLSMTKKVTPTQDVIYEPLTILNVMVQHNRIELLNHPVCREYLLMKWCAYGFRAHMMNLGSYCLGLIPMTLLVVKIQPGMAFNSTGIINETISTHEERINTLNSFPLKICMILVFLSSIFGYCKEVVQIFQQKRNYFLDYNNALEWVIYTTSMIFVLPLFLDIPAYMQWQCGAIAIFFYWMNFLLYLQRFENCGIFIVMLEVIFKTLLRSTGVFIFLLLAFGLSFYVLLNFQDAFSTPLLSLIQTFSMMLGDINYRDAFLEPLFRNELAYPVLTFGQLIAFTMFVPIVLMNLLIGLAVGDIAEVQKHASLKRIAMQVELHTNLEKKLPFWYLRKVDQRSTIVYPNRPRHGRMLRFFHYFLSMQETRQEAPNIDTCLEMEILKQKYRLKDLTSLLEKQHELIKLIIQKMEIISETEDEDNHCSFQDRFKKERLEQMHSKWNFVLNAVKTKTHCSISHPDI
T2 sequence (O35433 whole entry): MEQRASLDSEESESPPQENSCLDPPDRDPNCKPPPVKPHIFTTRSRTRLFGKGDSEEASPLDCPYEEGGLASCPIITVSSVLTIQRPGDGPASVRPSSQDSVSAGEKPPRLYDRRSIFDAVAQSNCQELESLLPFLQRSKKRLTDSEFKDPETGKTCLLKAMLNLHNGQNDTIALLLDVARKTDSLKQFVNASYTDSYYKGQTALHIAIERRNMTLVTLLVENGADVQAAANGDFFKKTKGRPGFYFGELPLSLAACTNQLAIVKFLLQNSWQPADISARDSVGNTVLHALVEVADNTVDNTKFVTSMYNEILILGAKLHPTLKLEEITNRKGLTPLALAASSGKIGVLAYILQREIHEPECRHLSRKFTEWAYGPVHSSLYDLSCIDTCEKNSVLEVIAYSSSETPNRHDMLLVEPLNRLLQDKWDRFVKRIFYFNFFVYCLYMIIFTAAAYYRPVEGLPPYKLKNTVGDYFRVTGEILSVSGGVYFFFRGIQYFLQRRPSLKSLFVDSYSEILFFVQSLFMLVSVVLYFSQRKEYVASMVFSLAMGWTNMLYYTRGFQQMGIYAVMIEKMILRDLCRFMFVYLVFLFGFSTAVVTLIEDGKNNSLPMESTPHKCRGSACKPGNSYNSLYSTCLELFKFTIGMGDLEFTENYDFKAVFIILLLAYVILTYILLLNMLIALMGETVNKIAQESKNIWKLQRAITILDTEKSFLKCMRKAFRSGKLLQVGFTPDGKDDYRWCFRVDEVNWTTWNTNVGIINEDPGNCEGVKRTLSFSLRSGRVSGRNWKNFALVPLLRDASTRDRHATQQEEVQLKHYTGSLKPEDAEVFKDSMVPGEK
T5 sequence (O75762 whole entry): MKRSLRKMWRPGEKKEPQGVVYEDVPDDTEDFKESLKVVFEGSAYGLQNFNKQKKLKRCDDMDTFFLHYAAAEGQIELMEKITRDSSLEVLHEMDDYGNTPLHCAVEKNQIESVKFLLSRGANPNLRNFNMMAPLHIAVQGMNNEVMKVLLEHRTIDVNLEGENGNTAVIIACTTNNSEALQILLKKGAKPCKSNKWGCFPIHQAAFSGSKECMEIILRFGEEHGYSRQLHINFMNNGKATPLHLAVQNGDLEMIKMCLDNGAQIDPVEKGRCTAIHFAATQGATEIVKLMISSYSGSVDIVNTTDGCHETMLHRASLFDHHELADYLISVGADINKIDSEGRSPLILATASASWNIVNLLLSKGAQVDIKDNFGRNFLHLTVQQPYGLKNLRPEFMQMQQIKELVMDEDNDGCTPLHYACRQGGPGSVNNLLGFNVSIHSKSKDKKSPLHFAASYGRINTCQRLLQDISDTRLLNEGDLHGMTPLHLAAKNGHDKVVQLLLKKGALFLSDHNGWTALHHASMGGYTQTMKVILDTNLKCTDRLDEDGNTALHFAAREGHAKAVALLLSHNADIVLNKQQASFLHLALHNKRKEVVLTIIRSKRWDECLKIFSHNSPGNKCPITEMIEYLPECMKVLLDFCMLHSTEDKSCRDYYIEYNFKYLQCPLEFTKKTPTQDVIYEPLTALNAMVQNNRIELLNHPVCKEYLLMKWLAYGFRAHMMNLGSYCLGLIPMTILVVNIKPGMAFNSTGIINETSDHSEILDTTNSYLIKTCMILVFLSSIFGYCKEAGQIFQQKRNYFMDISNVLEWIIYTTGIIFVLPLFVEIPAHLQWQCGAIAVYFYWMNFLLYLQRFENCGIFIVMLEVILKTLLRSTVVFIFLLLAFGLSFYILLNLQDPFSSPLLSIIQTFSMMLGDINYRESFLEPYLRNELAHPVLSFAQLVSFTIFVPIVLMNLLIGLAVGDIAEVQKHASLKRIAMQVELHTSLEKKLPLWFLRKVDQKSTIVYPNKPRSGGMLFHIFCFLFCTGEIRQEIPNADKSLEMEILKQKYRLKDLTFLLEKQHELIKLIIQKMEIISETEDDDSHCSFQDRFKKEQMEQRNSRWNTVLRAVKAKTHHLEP
T3 sequence (Q8R455 whole entry): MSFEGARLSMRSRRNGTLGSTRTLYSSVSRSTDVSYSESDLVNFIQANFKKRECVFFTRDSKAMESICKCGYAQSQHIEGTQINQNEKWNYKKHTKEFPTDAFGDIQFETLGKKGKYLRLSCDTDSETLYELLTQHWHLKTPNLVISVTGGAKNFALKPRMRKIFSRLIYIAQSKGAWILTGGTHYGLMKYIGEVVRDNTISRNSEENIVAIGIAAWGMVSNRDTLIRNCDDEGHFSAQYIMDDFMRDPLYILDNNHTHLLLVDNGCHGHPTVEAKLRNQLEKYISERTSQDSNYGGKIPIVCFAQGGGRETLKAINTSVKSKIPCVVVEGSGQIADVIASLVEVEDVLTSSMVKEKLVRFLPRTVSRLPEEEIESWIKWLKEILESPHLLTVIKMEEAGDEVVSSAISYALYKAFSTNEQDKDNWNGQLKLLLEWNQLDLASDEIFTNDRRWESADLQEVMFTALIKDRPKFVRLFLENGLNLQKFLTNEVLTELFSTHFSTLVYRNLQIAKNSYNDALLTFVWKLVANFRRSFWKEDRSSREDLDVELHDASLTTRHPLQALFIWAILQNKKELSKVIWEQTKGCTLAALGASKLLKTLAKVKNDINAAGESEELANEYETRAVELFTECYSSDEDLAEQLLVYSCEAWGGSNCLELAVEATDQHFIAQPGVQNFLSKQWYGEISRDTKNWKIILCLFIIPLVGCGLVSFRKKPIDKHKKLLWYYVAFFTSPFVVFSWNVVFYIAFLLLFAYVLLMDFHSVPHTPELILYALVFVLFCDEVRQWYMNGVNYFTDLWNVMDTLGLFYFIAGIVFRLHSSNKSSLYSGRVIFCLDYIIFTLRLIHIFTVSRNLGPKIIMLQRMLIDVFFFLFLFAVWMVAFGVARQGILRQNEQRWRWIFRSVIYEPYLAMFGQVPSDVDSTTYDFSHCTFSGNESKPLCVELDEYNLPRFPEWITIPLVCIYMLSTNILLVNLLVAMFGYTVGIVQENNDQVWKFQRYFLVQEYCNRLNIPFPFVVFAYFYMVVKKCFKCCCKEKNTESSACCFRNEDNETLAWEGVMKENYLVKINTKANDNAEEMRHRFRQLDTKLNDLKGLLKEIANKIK

CC(C)(C)c1ccc(/C=C/C(=O)Nc2ccc3c(c2)OCCO3)cc1 [AMG9810]
Inhibition of isoflurane-evoked TRPV1 responses after PDBu (TRPV1 [1]): inhibits; also recorded: completely inhibited

CC12CCC(CC1=O)C2(C)C (centres unmarked) [camphor]
Inhibition of propofol-evoked inward currents [2]: blocked; also recorded: sensitive

COc1cc(CNC(=O)CCCC/C=C/C(C)C)ccc1O [capsaicin]
TRPA1-deficient cells sensitive to capsaicin [3]: 43% | Nocifensive behavior in TRPV1-null mice (mice [4]): but not in TRPV 1-null mice | Nocifensive behavior in wild-type mice (mice [4]): produced similar behavior | Flexor reflex muscle activity in TRPA1+/− mice (mice [5]): robust responses | Flexor reflex muscle activity in TRPA1-null mice (mice [5]): robust responses

Oc1cc2c(cc1O)CN(C(=S)NCCc1ccc(Cl)cc1)CCC2 [capsazepine]
Inhibition of responses to isoflurane after BK (TRPV1 [1]; capsazepine 1 μM, 3 of 3 cells): completely inhibited

CCCCCCCCCCO [decanol]
Shifts in TRPV1 V1/2 and increases in maximal conductance by alcohols (TRPV1 [6]; octanol 1 mM): smaller response

CCCCCCCCCCCCO [dodecanol]
Shifts in TRPV1 V1/2 and increases in maximal conductance by alcohols (TRPV1 [6]; octanol 1 mM): without effect

FC(F)OC(F)(F)C(F)Cl (centres unmarked) [enflurane]
Enhancement of proton-evoked currents compared with isoflurane and sevoflurane (TRPV1 [7]): significantly more | 1 MAC equivalent aqueous concentration (published conversion factor) [8]: 0.64 mM

CCOC(=O)c1cncn1[C@H](C)c1ccccc1 [etomidate]
Change in V1/2 of TRPM8 (ΔV1/2, increase) (TRPM8; 100 μM, n=5-6): 25.5 mV

FC(F)(F)C(Cl)Br (centres unmarked) [halothane]
Activation of TRPA1 currents by VGAs (TRPA1): without effect | 1 MAC equivalent aqueous concentration (published conversion factor) [8]: 0.27 mM | Currents evoked after PDBu treatment in TRPV1-expressing HEK293 cells (TRPV1 [6]; VGA 0.9 mM, PDBu 500 nM, room temperature (25° C.)): activates currents

COC(F)(F)C(Cl)Cl [methoxyflurane]
Effect on AITC-evoked currents (hTRPA1): did not

CCCCCCCCO [octanol]
Activation of TRPA1 at holding potential −50 mV (TRPA1; [9]): selectively activated | Response relative to 1 mM AITC (TRPA1; octanol 1.8 mM, at +200 mV): < 50% | Effects at TRPM8 at holding potential −50 mV (TRPM8; [9]): negligible effects | Effects at TRPV1 at holding potential −50 mV (TRPV1 [6]; [9]): negligible effects | Shifts in TRPV1 V1/2 and increases in maximal conductance by alcohols (TRPV1 [6]; octanol 1 mM): reached a maximum | Response relative to 10 μM capsaicin (TRPV1 [6]; octanol 1.8 mM, at 200 mV): ~40%

FCOC(C(F)(F)F)C(F)(F)F [sevoflurane]
Activation of TRPA1 currents by VGAs (TRPA1): without effect | Effect on AITC-evoked currents (hTRPA1): did not | 1 MAC equivalent aqueous concentration (published conversion factor) [8]: 0.35 mM
